# System: diarrhea-predominant IBS subjects
# Assay: 3007 Study: open-label 52-week safety study, adverse events and withdrawals
# Conditions: Overall
structure (smiles),measurement,value
"Cc1nccn1C[C@H]1CCc2c(c3cccc4c3n2CCC4)C1=O [cilansetron, (R)-(−)-4,5,6,8,9,10-hexahydro-10-[(2-methyl-1H-imidazol-1-yl)methyl]-11H-pyrido-[3,2,1-jk]-carbazol-11-one]",TEAE: Faeces Abnormal,9 (2%) n (%)
same,TEAE: Faeces Hard,6 (1%) n (%)
same,TEAE: Fall,4 (<1%) n (%)
same,TEAE: Fatigue,13 (2%) n (%)
same,TEAE: Fatigue Aggravated,1 (<1%) n (%)
same,TEAE: Febrile Disorders,3 (<1%) n (%)
same,TEAE: Fibroma NOS,1 (<1%) n (%)
same,TEAE: Fibromyalgia,1 (<1%) n (%)
same,TEAE: Flatulence,26 (5%) n (%)
same,"TEAE: Flatulence, Bloating and Distension",36 (7%) n (%)
same,TEAE: Fluid Intake Increased,1 (<1%) n (%)
same,TEAE: Fluid in Middle Ear,1 (<1%) n (%)
same,TEAE: Flushing,1 (<1%) n (%)
same,TEAE: Food Allergy,1 (<1%) n (%)
same,TEAE: Food Poisoning NOS,3 (<1%) n (%)
same,TEAE: Foot Fracture,2 (<1%) n (%)
same,TEAE: Fractures and Dislocations NEC,1 (<1%) n (%)
same,TEAE: Frequent Bowel Movements,1 (<1%) n (%)
same,TEAE: Fungal Infection NOS,3 (<1%) n (%)
same,TEAE: Fungal Infections NEC,8 (1%) n (%)
same,TEAE: Gamma-Glutamyltransferase Increased,8 (1%) n (%)
same,TEAE: Gastric Irritation,1 (<1%) n (%)
same,TEAE: Gastritis (Excl Infective),3 (<1%) n (%)
same,TEAE: Gastritis NOS,3 (<1%) n (%)
same,TEAE: Gastroenteritis NOS,9 (2%) n (%)
same,TEAE: Gastroenteritis Viral NOS,11 (2%) n (%)
same,TEAE: Gastrointestinal Atonic and Hypomotility Disorders NEC,133 (25%) n (%)
same,TEAE: Gastrointestinal Disorders,268 (50%) n (%)
same,TEAE: Gastrointestinal Disorders NEC,3 (<1%) n (%)
same,TEAE: Gastrointestinal Dyskinetic Disorders,4 (<1%) n (%)
same,TEAE: Gastrointestinal Histopathology Procedures,37 (7%) n (%)
same,TEAE: Gastrointestinal Infections - Pathogen Class Unspecified,9 (2%) n (%)
same,TEAE: Gastrointestinal Inflammatory Disorders NEC,2 (<1%) n (%)
same,TEAE: Gastrointestinal Motility Disorder NOS,3 (<1%) n (%)
same,TEAE: Gastrointestinal Mucosal Dystrophies and Secretion Disorders,1 (<1%) n (%)
same,TEAE: Gastrointestinal Signs and Symptoms NEC,4 (<1%) n (%)
same,TEAE: Gastrointestinal Spastic and Hypermotility Disorders,5 (<1%) n (%)
same,TEAE: Gastrointestinal and Abdominal Pains (Excl Oral and Throat),69 (13%) n (%)
same,TEAE: General Disorders and Administration Site Conditions,42 (8%) n (%)
same,TEAE: General Signs and Symptoms NEC,9 (2%) n (%)
same,TEAE: Gilbert's Syndrome,1 (<1%) n (%)
same,TEAE: Gingival Abscess,2 (<1%) n (%)
same,TEAE: Gingival Atrophy,1 (<1%) n (%)
same,TEAE: Gingival Disorders NEC,3 (<1%) n (%)
same,TEAE: Gingival Pain,1 (<1%) n (%)
same,TEAE: Gingival Pains,1 (<1%) n (%)
same,TEAE: Gingivitis,2 (<1%) n (%)
same,TEAE: Gingivitis Infection NOS,1 (<1%) n (%)
same,TEAE: Glucose Tolerance Impaired,1 (<1%) n (%)
same,TEAE: Glucose Urine Present,1 (<1%) n (%)
same,TEAE: Glycosuria,1 (<1%) n (%)
same,TEAE: Goitre,1 (<1%) n (%)
same,TEAE: Gout,2 (<1%) n (%)
same,TEAE: Groin Pain,1 (<1%) n (%)
same,TEAE: Haematocrit Decreased,1 (<1%) n (%)
same,TEAE: Haematoma NOS,1 (<1%) n (%)
same,TEAE: Haematuria,4 (<1%) n (%)
same,TEAE: Haemoglobin Decreased,1 (<1%) n (%)
same,TEAE: Haemorrhoidal Haemorrhage,4 (<1%) n (%)
same,TEAE: Haemorrhoids,11 (2%) n (%)
same,TEAE: Haemorrhoids Aggravated,1 (<1%) n (%)
same,TEAE: Haemorrhoids and Gastrointestinal Varices (Excl Oesophageal),15 (3%) n (%)
same,TEAE: Halitosis,1 (<1%) n (%)
same,TEAE: Hallucination NOS,1 (<1%) n (%)
same,"TEAE: Hallucination, Auditory",1 (<1%) n (%)
same,TEAE: Hand Fracture,1 (<1%) n (%)
same,TEAE: Headache NOS,31 (6%) n (%)
same,TEAE: Headache NOS Aggravated,5 (<1%) n (%)
same,TEAE: Headaches NEC,39 (7%) n (%)
same,TEAE: Hearing Losses,1 (<1%) n (%)
same,TEAE: Heart Rate Increased,2 (<1%) n (%)
same,TEAE: Heart Rate and Pulse Investigations,2 (<1%) n (%)
same,TEAE: Heat Exhaustion,1 (<1%) n (%)
same,TEAE: Heat Injuries (Excl Thermal Burns),1 (<1%) n (%)
same,TEAE: Helicobacter Pylori Antibody Positive,1 (<1%) n (%)
same,TEAE: Hepatitis NOS,1 (<1%) n (%)
same,TEAE: Hepatobiliary Disorders,5 (<1%) n (%)
same,TEAE: Hepatobiliary Signs and Symptoms,1 (<1%) n (%)
same,TEAE: Hepatocellular Damage and Hepatitis NEC,1 (<1%) n (%)
same,TEAE: Hepatosplenomegaly NOS,1 (<1%) n (%)
same,TEAE: Hernia NOS,1 (<1%) n (%)
same,TEAE: Hernia Repair NOS,1 (<1%) n (%)
same,TEAE: Hernia Repairs,1 (<1%) n (%)
same,TEAE: Hernias NEC,1 (<1%) n (%)
same,TEAE: Herpes Simplex,3 (<1%) n (%)
same,TEAE: Herpes Simplex Aggravated,1 (<1%) n (%)
same,TEAE: Herpes Viral Infections,5 (<1%) n (%)
same,TEAE: Herpes Zoster,1 (<1%) n (%)
same,TEAE: Hiatus Hernia,2 (<1%) n (%)
same,TEAE: Hot Flushes NOS,1 (<1%) n (%)
same,TEAE: Hypercholesterolaemia,6 (1%) n (%)
same,TEAE: Hyperglycaemia NOS,3 (<1%) n (%)
same,TEAE: Hyperglycaemic Conditions NEC,4 (<1%) n (%)
same,TEAE: Hyperkeratoses,1 (<1%) n (%)
same,TEAE: Hyperkeratosis,1 (<1%) n (%)
same,TEAE: Hyperlipidaemia NOS,1 (<1%) n (%)
same,TEAE: Hyperlipidaemias NEC,1 (<1%) n (%)
same,TEAE: Hyperreflexia,1 (<1%) n (%)
same,TEAE: Hypersensitivity NOS,2 (<1%) n (%)
same,TEAE: Hypertension Aggravated,2 (<1%) n (%)
same,TEAE: Hypertension NOS,13 (2%) n (%)
same,TEAE: Hypoaesthesia,2 (<1%) n (%)
same,TEAE: Hypotension NOS,1 (<1%) n (%)
same,TEAE: Immune System Disorders,9 (2%) n (%)
same,TEAE: Inborn Errors of Bilirubin Metabolism,1 (<1%) n (%)
same,TEAE: Infected Varicose Vein,1 (<1%) n (%)
same,TEAE: Infections NEC,4 (<1%) n (%)
same,TEAE: Infections and Infestations,173 (32%) n (%)
same,TEAE: Influenza,18 (3%) n (%)
same,TEAE: Influenza Like Illness,4 (1%) n (%)
same,TEAE: Influenza Viral Infections,18 (3%) n (%)
same,TEAE: Ingrowing Nail,1 (<1%) n (%)
same,TEAE: Inguinal Hernia NOS,1 (<1%) n (%)
same,TEAE: Inguinal Hernias,1 (<1%) n (%)
same,"TEAE: Injury, Poisoning and Procedural Complications",47 (9%) n (%)
same,TEAE: Inner Ear Disorders NEC,1 (<1%) n (%)
same,TEAE: Inner Ear Infections and Inflammations,3 (<1%) n (%)
same,TEAE: Inner Ear Signs and Symptoms,3 (<1%) n (%)
same,TEAE: Insomnia,5 (<1%) n (%)
same,TEAE: Insomnia Exacerbated,1 (<1%) n (%)
same,TEAE: Intermenstrual Bleeding*,1 (<1%) n (%)
same,TEAE: Intervertebral Disc Degeneration NOS,2 (<1%) n (%)
same,TEAE: Intervertebral Disc Disorder NOS,1 (<1%) n (%)
same,TEAE: Intervertebral Disc Disorders NEC,5 (<1%) n (%)
same,TEAE: Intervertebral Disc Herniation,4 (<1%) n (%)
same,TEAE: Intestinal Haemorrhages,8 (1%) n (%)
same,TEAE: Intraocular Pressure Increased,2 (<1%) n (%)
same,TEAE: Investigations,126 (24%) n (%)
same,TEAE: Irritability,1 (<1%) n (%)
same,TEAE: Irritable Bowel Syndrome,1 (<1%) n (%)
same,TEAE: Irritable Bowel Syndrome Aggravated,3 (<1%) n (%)
same,TEAE: Ischaemic Coronary Artery Disorders,4 (<1%) n (%)
same,TEAE: Joint Related Disorders NEC,2 (<1%) n (%)
same,TEAE: Joint Related Signs and Symptoms,14 (3%) n (%)
same,TEAE: Joint Sprain,4 (<1%) n (%)
same,TEAE: Joint Swelling,1 (<1%) n (%)
same,TEAE: Kidney Infection NOS,1 (<1%) n (%)
same,TEAE: Labyrinthitis NOS,3 (<1%) n (%)
same,TEAE: Laceration,6 (1%) n (%)
same,TEAE: Lacrimal Disorders,2 (<1%) n (%)
same,TEAE: Lactose Intolerance,1 (<1%) n (%)
same,TEAE: Laryngeal and Adjacent Sites Disorders NEC (Excl Infections and Neoplasms),3 (<1%) n (%)
same,TEAE: Laryngitis NOS,3 (<1%) n (%)
same,TEAE: Leiomyoma NOS,1 (<1%) n (%)
same,TEAE: Lethargy,1 (<1%) n (%)
same,TEAE: Leukopenia NOS,2 (<1%) n (%)
same,TEAE: Leukopenias NEC,2 (<1%) n (%)
same,TEAE: Libido Decreased,1 (<1%) n (%)
same,"TEAE: Lid, Lash and Lacrimal Structural Disorders (Excl Congenital)",1 (<1%) n (%)
same,TEAE: Ligament Sprain,2 (<1%) n (%)
same,TEAE: Limb Discomfort NOS,1 (<1%) n (%)
same,TEAE: Limb Injuries NEC (Incl Traumatic Amputation),4 (<1%) n (%)
same,TEAE: Limb Injury NOS,2 (<1%) n (%)
same,TEAE: Lip and Palate Disorders NEC,1 (<1%) n (%)
same,TEAE: Lipid Metabolism Disorder NOS,1 (<1%) n (%)
same,TEAE: Lipid Metabolism and Deposit Disorders NEC,1 (<1%) n (%)
same,TEAE: Lipoma NOS,2 (<1%) n (%)
same,TEAE: Liver Function Analyses,23 (4%) n (%)
same,TEAE: Liver Function Tests NOS Abnormal,2 (<1%) n (%)
same,TEAE: Localised Infection,2 (<1%) n (%)
same,TEAE: Localised Osteoarthritis,1 (<1%) n (%)
same,TEAE: Loss of Consciousness,1 (<1%) n (%)
same,TEAE: Lower Limb Fracture NOS,1 (<1%) n (%)
same,TEAE: Lower Limb Fractures and Dislocations,3 (<1%) n (%)
same,TEAE: Lower Respiratory Tract Signs and Symptoms,2 (<1%) n (%)
same,TEAE: Lower Respiratory Tract and Lung Infections,28 (5%) n (%)
same,TEAE: Lymphadenopathy,2 (<1%) n (%)
same,TEAE: Lymphangitis and Lymphatic Disorders NEC,2 (<1%) n (%)
same,TEAE: Lymphocyte Count Increased,2 (<1%) n (%)
